In PubChem BioAssay (NCI):
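The compound was tested at five concentrations on cells cultured in 96-well plates, with a 48-hour exposure period. At the TGI there is no net growth.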

Legend:
Assay in all cases: inhibition of tumour cell growth, NCI panel, 48 h
OVCAR-4 ovarian = test system: OVCAR-4 ovarian
HOP-18 NSCLC = test system: HOP-18 NSCLC
DMS 273 small cell lung = test system: DMS 273 small cell lung
HCC-2998 colon = test system: HCC-2998 colon
LXFL 529 NSCLC = test system: LXFL 529 NSCLC
DLD-1 colon = test system: DLD-1 colon
LOX IMVI melanoma = test system: LOX IMVI melanoma
786-0 renal = test system: 786-0 renal
SF-539 CNS = test system: SF-539 CNS
NCI-H23 lung = test system: NCI-H23 lung
MDA-MB-435 = test system: MDA-MB-435
DU-145 prostate = test system: DU-145 prostate
MDA-N = test system: MDA-N

SMILES	TGI (OVCAR-4 ovarian)	TGI (HOP-18 NSCLC)	TGI (DMS 273 small cell lung)	TGI (HCC-2998 colon)	TGI (LXFL 529 NSCLC)	TGI (DLD-1 colon)	TGI (LOX IMVI melanoma)	TGI (786-0 renal)	TGI (SF-539 CNS)	TGI (NCI-H23 lung)	TGI (MDA-MB-435)	TGI (DU-145 prostate)	TGI (MDA-N)
CCCCOC(=O)CNC(=O)OCCCCC#CC#CCCCCOC(=O)NCC(=O)OCCCC	> 100 µM	> 100 µM	> 100 µM	> 100 µM	> 100 µM	> 100 µM	> 100 µM	> 100 µM	> 100 µM	> 100 µM			
CCCCCc1cc(OC(=O)c2c(O)cc(OC)cc2CCCCC)cc(O)c1C(=O)O	41.3 µM		32.4 µM	29 µM	30.5 µM	26.7 µM	33.1 µM	30.3 µM	30.5 µM	27.1 µM			
COC1=CC(=O)c2ccccc2C1(CCC=C(C)C)C1=NC(C)(C)CO1 (stereo not given)	> 100 µM	> 100 µM	> 100 µM		> 100 µM	> 100 µM		> 100 µM	> 100 µM	> 100 µM			
N/N=C(\C(=O)Nc1c(Cl)cc([N+](=O)[O-])cc1Cl)C(c1cnc2ccc([N+](=O)[O-])cc2n1)[N+](=O)[O-] (stereo not given)	> 100 µM		> 100 µM	> 100 µM		> 100 µM	> 100 µM		> 100 µM	> 100 µM			
CCOC(C[Se]CC(OCC)OCC)OCC	> 100 µM			> 100 µM			59.4 µM	> 100 µM	62.4 µM	> 100 µM	> 100 µM	85.7 µM	> 100 µM
c1ccc2c(-c3cnc(-c4c[nH]c5ccccc45)cn3)c[nH]c2c1	> 100 µM			> 100 µM			94.2 µM	> 100 µM	73.7 µM	> 100 µM	78.5 µM	> 100 µM	50.3 µM
O=C1C(Br)=CC2([N+](=O)[O-])CCNc3c(O)c4c5c(c3C2=C1Br)=NCCC=5C=N4 (stereo not given)	3.7 µM	27.5 µM	6.92 µM	13.2 µM		1.49 µM	6.4 µM		4.55 µM	3.41 µM			
CC(=O)NNc1nc(C)c(C(/C=C/c2ccc3c(c2)OCO3)=N/Nc2ccccc2)s1	> 100 µM			> 100 µM			> 100 µM	> 100 µM	> 100 µM	> 100 µM	> 100 µM	> 100 µM	> 100 µM
COC1C(O)CC(OC2C(C)OC(Oc3cc(O)c4c(O)c5c(cc4c3)C[C@@H]([C@H](OC)C(=O)[C@@H](O)[C@@H](C)O)[C@H](OC3CC(OC4CC(OC6CC(C)(O)C(O)C(C)O6)C(O)C(C)O4)C(O)C(C)O3)C5=O)CC2OC(C)=O)OC1C (stereo not given in full)	> 100 µM			> 100 µM			> 100 µM	> 100 µM	> 100 µM	> 100 µM	> 100 µM	> 100 µM	> 100 µM
Oc1ccc(Cl)cc1C1=N/C(=N\CN2CCN(C/N=C3/N=C(c4cc(Cl)ccc4O)CC(c4ccccc4)N3)CC2)NC(c2ccccc2)C1 (stereo not given)	78 µM			> 100 µM			> 100 µM	65.4 µM	> 100 µM	> 100 µM	> 100 µM	> 100 µM	> 100 µM
O=C(Nc1sccc1S(=O)(=O)c1ccccc1)c1cccnc1	> 100 µM			> 100 µM			> 100 µM	> 100 µM	38.2 µM	> 80.2 µM	8.36 µM	> 100 µM	3.63 µM
O=C(c1ccc(Cl)cc1)c1ccc(OCC(=O)N2CCN(c3ccccc3)CC2)cc1	> 100 µM	> 100 µM		> 100 µM	> 100 µM	> 100 µM	> 100 µM	> 100 µM	> 100 µM	> 100 µM			
Cc1ccc(C(=O)N(C2CCCCC2)C2CCCCC2)cc1N=NN(C)C	24 µM		31.4 µM	29.4 µM	27.8 µM	28.6 µM	30.2 µM	28.7 µM	37.2 µM	27.9 µM	30 µM		28.3 µM
CCOC/N=C(/N)NC#N		> 100 µM	> 100 µM	> 100 µM	> 100 µM	> 100 µM	27.1 µM	56.2 µM	> 100 µM	> 100 µM			
COc1cc(OC)c2c(O)cc(CC(C)O)cc2c1 (stereo not given)	> 100 µM	> 100 µM	> 100 µM	> 100 µM	> 100 µM	> 100 µM	> 100 µM	> 100 µM	> 100 µM	> 100 µM			
COc1cc(-c2nc3cc(F)ccc3s2)ccc1O	> 100 µM			55.5 µM			> 100 µM	> 100 µM	> 100 µM	> 100 µM	> 100 µM	> 100 µM	> 100 µM

SMILES	TGI (OVCAR-4 ovarian)	TGI (HOP-18 NSCLC)	TGI (DMS 273 small cell lung)	TGI (HCC-2998 colon)	TGI (LXFL 529 NSCLC)	TGI (DLD-1 colon)	TGI (LOX IMVI melanoma)	TGI (786-0 renal)	TGI (SF-539 CNS)	TGI (NCI-H23 lung)	TGI (MDA-MB-435)	TGI (DU-145 prostate)	TGI (MDA-N)
CC(=O)Oc1ccc(/C=C/C(=O)O[C@@H](C)[C@H](C)OC(=O)/C=C/c2ccc(OC(C)=O)c(OC(C)=O)c2)cc1OC(C)=O	> 100 µM			50.4 µM			29 µM	> 100 µM	> 100 µM	25.8 µM	> 100 µM	> 100 µM	89.4 µM
COC(=O)C12Oc3ccc(-c4ccc5c(c4O)C(=O)C4=CCC(C)C(O)C4(C(=O)OC)O5)c(O)c3C(=O)C1=CCC(C)C2O (stereo not given)	6.1 µM	6.56 µM	3.25 µM	2.6 µM	2.65 µM	2.14 µM	2.67 µM	2.98 µM	11.9 µM	2.83 µM			
COc1ccc2c3c1OC1CC(O)C=CC31CCN(C)C2 (stereo not given)	> 150 µM	> 150 µM	> 150 µM	> 150 µM		> 54.1 µM	> 150 µM		> 33.8 µM	> 150 µM			
Cc1c(-c2c(C)c3ccccc3n2S(=O)(=O)c2ccccc2)n(S(=O)(=O)c2ccccc2)c2ccccc12	> 100 µM			> 69 µM			> 100 µM	42.9 µM	> 100 µM	> 100 µM	> 100 µM	> 33.5 µM	> 100 µM
CC(=O)NCCCCNCCCNC(C)=O	> 100 µM			> 100 µM			> 100 µM	> 100 µM	> 100 µM	> 100 µM	> 100 µM	> 100 µM	> 100 µM
CCCC/C=C1\CCC(CN2CCCCC2)C1=O (stereo not given)	48 µM	16.8 µM		22.6 µM	3.26 µM	3.25 µM	> 48.2 µM		36.1 µM	45.1 µM	> 100 µM	> 100 µM	> 100 µM
COc1ccc(N(C(=O)Nc2ccc(Cl)c(Cl)c2)c2ccccc2)cc1	> 10 µM			> 10 µM			> 10 µM	> 10 µM	> 10 µM	> 10 µM	> 10 µM	> 10 µM	> 10 µM
CSc1c(C(=O)Nc2ccccc2)c(N)nn1-c1ccccc1	> 100 µM			> 100 µM			> 100 µM	> 100 µM	> 100 µM	> 100 µM	> 100 µM	> 100 µM	> 100 µM
COc1cccc(N2C(=O)C3c4[nH]c5ccccc5c4C4c5ccccc5CCC4C3C2=O)c1 (stereo not given)	> 7.12 µM			> 10 µM			> 10 µM	> 8.35 µM	6.11 µM	> 10 µM	> 10 µM	> 10 µM	> 10 µM
CCOC(=O)/C(=C\NCC(O)c1ccccc1)c1nc2ccccc2[nH]1 (stereo not given)	75.5 µM			42.2 µM			37.7 µM	> 100 µM	47.8 µM	59.6 µM	51.8 µM	> 100 µM	82.7 µM
Cc1cc2c(cc1Cl)Sc1nnc(Nc3ccccc3)n1S2(=O)=O	32 µM			14.2 µM			18.7 µM	19.1 µM	14.2 µM	15.9 µM	54.8 µM	> 100 µM	31.2 µM
C=CC(=O)N1C/C(=C\c2ccc(N(C)C)cc2)C(=O)/C(=C/c2ccc(N(C)C)cc2)C1	> 100 µM			> 100 µM			> 100 µM	> 100 µM	> 100 µM	> 100 µM	> 100 µM	> 100 µM	78.7 µM
c1ccc(CNc2c3c(nc4ccccc24)CCC3)cc1	58.7 µM			26.5 µM			28.4 µM	28.5 µM	36.7 µM	46.2 µM	30.6 µM	62.5 µM	30.4 µM
CC(C)/C(Cl)=N/OC(=O)Nc1ccc(F)c(Cl)c1	24.3 µM			28.1 µM			3.59 µM	2.96 µM	20.9 µM	27.8 µM	23.4 µM	30.5 µM	14.8 µM
O=C(Nc1ccccc1)O/N=C(/CBr)c1ccccc1	33.8 µM			36.6 µM			16.3 µM	26.6 µM	29.5 µM	26.2 µM	21.5 µM	38.1 µM	24.2 µM
Oc1ccc(/C=C\c2nnc(/C=C\c3ccc(O)c(O)c3)s2)cc1O	16 µM			23.9 µM			> 55.2 µM	38.6 µM	13.8 µM	17.7 µM	15.1 µM	18.8 µM	20.8 µM
